The experiment has as its system H9c2 cardiomyocytes, H2O2 protection, ATPLite viability, 2 h. Kind of experiment: H2O2-induced H9c2 cell death suppression – ATPLite luminescence, set 2, dose response (AID 602211).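 Note: potency is for protection so actives keep ATP signal up against peroxide killing.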 Background: In ATP-based viability assays light output follows the ATP content of the culture.

Calls of active or inactive are those of the source.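 Rule for the calls: active = mean IC50 at or below 10 µM; inactive = the rest.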 Where only a bound is given, the exact number is not on record here.

What is called IC50 is the concentration at which inhibition is half-maximal.

With `CC(=O)Nc1cccc(NC(=O)c2cc(-c3cccnc3)nc3ccc(Br)cc23)c1`, the IC50 was 1.3 µM.
Consider `O=C(CN1CCCCC1)Nc1nc(-c2ccc(F)c(F)c2)cs1`, for which the IC50 was > 79 µM (inactive).
`O=C(Nc1cc(S(=O)(=O)N2CCOCC2)ccc1N1CCCCC1)c1cc(-c2ccccn2)nc2ccccc12`: the IC50 is 3.38 µM.
The value for `CCOC(=O)N1CCC(n2c(SCC(=O)N3CCC(C)CC3)nc3ccccc3c2=O)CC1` was > 79 µM (inactive); that for `COc1ccc(/C=N/NC(=O)c2ccc(COc3cccc4cccnc34)cc2)cc1OC` was 3.89 µM; that for `C[C@@H]1ON(C)[C@H]2C[C@H]3c4[nH]c5ccc(-c6ccc7c(c6)OCO7)cc5c4CCN3C[C@@H]12` was > 79 µM (inactive).
The value for `CC(=O)c1cccc(-c2cnc3c(NC=O)cc(-c4ccccc4F)cn23)c1` was 7.66 µM.
Turning to `COc1cc(NC(=O)c2ccco2)c(C(=O)OCC(=O)c2c[nH]c3ccccc23)cc1OC`, the IC50 was > 79 µM (inactive).
On to `C[C@H](NC(=O)c1nc[nH]c1C(=O)NCC(=O)OCc1ccccc1)c1ccccc1`, for which the IC50 is 1.6 µM.
Turning to `COC(=O)C1=C(C)N(CCc2ccc(OC)cc2)C(=O)C1`, the IC50 was 21.9 µM (inactive).
As to `COc1cc(NC(=O)c2cc3nc(-c4ccccc4)cc(-c4ccccc4)n3n2)cc(OC)c1OC`, the IC50 is 3.87 µM.
The figure for `C[C@H](NC(=O)c1nc[nH]c1C(=O)NCC(=O)OCc1ccccc1)C(=O)OCc1ccccc1` is 26.2 µM (inactive).
With `CC1Nc2ncnc(N3CCN(c4ccccc4)CC3)c2N(Cc2ccc(Br)cc2)C1=O` (stereo not drawn), the IC50 was 6.65 µM.
As for `Cc1cc(NC(=O)C2CCCCC2)nc2c1c(=O)oc1ccccc12`, the IC50 is 23.7 µM (inactive).
Take `CCC(=O)Nc1cccc(-c2nnc(-c3cccc(NC(=O)CC)c3)o2)c1`: the IC50 was 4.1 µM.
For the compound `CN(C)S(=O)(=O)c1ccc2[nH]cc(/C=C/c3nc4ccccc4c(=O)n3-c3ccccc3)c2c1`, the IC50 is 1.26 µM.
`COc1cc2c(C#CCCCO)c(-c3ccsc3)oc(=O)c2cc1OC`: the half-inhibitory concentration (IC50) was 2.3 µM.
As to `COc1cc(-c2cnc3c(NC=O)cc(-c4ccsc4)cn23)cc(OC)c1OC`, the IC50 is > 79 µM (inactive).
As for `CC(C(=O)NC1CCCC1)N(C(=O)Cn1nnc(-c2ccc(F)cc2)n1)c1ccccc1F` (stereo not drawn), the IC50 was 1.68 µM.
The figure for `COc1cc(/C=N\NC(=O)c2cccnc2)ccc1OC(=O)c1ccccc1Cl` is 30 µM (inactive).
On to `CCOC(=O)C1=C(C)NC(C)=C(C(=O)OCC)C1C(=O)OCC(=O)NC(C)C`, for which the IC50 is 12.9 µM (inactive).
For `COc1ccc(OC)c(/C=N/NC(=O)c2cc3c(OC)c(OC)ccc3[nH]2)c1`, the IC50 is 3.48 µM.
The value for `NC(=O)c1cccc(-c2coc3c(C(=O)NCCc4ccccc4)cccc23)c1` was > 79 µM (inactive); that for `O=C(NCc1ccco1)c1cc(-c2cccnc2)nc2ccc(Cl)cc12` was 4.95 µM; that for `COc1cccc(CN(C)C(=O)C(Cc2ccccc2)NC(=O)c2ccccc2)c1OC` (stereo not drawn) was 6.8 µM.
Take `CCOC(=O)c1c(C)[nH]c(C)c1C(=O)COc1ncnc2cc([N+](=O)[O-])ccc12`: the IC50 is 11.1 µM (inactive).
`O=C(C[C@H]1C/C=C\CC[C@H](Cc2ccc(F)cc2)C(=O)O[C@H](c2ccccc2)CNC1=O)N[C@H](CO)Cc1ccccc1`: the IC50 was > 79 µM (inactive).
Consider `Cn1c(=O)[nH]c(=O)c2c1nc(N(CCO)Cc1ccccc1)n2CCCc1ccccc1`, for which the IC50 was 11.3 µM (inactive).
The figure for `CCOC(=O)C1CCN(C(c2cc3c(C)ccc(C)c3[nH]c2=O)c2nnnn2C2CCCCC2)CC1` (stereo not drawn) is > 79 µM (inactive); for `O=C(N/N=C/c1ccccn1)c1ccc(NC(=O)c2cccc([N+](=O)[O-])c2)cc1` it is 7.34 µM; for `COc1ccc(-n2cc(-c3ccccc3)c3c(N4CCOCC4)ncnc32)cc1` it is 4.02 µM.
Take `Cn1c(=O)c2[nH]c(NN=Cc3cccc(Br)c3)nc2n(C)c1=O`: the IC50 was 4.39 µM.
With `CC(=O)Nc1ccc(Nc2nc(-c3sc(NC(C)=O)nc3C)cs2)cc1`, the IC50 was 12.2 µM (inactive).
Turning to `Cc1ccccc1N(C(=O)c1snc(C(N)=O)c1N)C(C(=O)NCc1ccccc1)c1ccc(O)cc1` (stereo not drawn), the IC50 is 6.3 µM.
Take `CCOc1cccc(-c2nn3c(-c4ccccn4)nnc3s2)c1`: the IC50 was 6.55 µM.
Consider `CC12C=CC(=O)CC1CCC1C2CCC2(C)C(O)C(O)CC12` (stereo not drawn), for which the half-maximal inhibitory concentration (IC50) is 2.62 µM.
The figure for `COc1ccc(CC(=O)N(Cc2ccccc2)c2ccccc2)cc1S(=O)(=O)N1CCOCC1` is 2.24 µM.
For `COc1ccc(-c2csc(NC(=O)c3cccc(N4C(=O)CCC4=O)c3)n2)cc1OC`, the IC50 was 5 µM.
Take `CCOC(=O)c1cc2c(=O)n3ccccc3nc2n(Cc2ccco2)c1=NC(=O)c1cccnc1`: the IC50 was 19 µM (inactive).
In the case of `COc1ccc(NC(=O)c2cc(-c3ccccn3)nc3ccccc23)cc1S(=O)(=O)N(C)C`, the IC50 was 2.46 µM.
The figure for `O=C(Nc1ccc2nc(N3CCOCC3)sc2c1)c1cc2ccccc2o1` is 4.75 µM; for `O=C(Nc1nc(-c2ccccn2)cs1)c1ccc(-c2ccccc2F)o1` it is 3 µM.
For `Cc1ccc(NC(=O)c2nc[nH]c2C(=O)NCCCNC(=O)c2[nH]cnc2C(=O)Nc2ccc(C)cc2)cc1`, the half-maximal inhibitory concentration (IC50) is 1.1 µM.
For the compound `CCN(C[C@H]1N[C@@](C)(C(=O)OC)[C@H]2C(=O)N(Cc3ccccc3)C(=O)[C@@H]12)C(=O)c1ccc(C(C)(C)C)cc1`, the IC50 is 6.25 µM.
The value for `Cc1cc(C)c(C)c(S(=O)(=O)N2CCN(C(=O)c3cc(=O)[nH]c4ccccc34)CC2)c1C` was 0.998 µM; that for `COc1cc(OC)c(-c2nn3c(-c4ccco4)nnc3s2)cc1OC` was 4.56 µM.
The value for `COCCn1c(=NC(=O)c2nc3ccccc3s2)sc2cc(S(C)(=O)=O)ccc21` was 1.4 µM; that for `CCOc1ccc2nc(NC(=O)CN3CCC(n4nnc5cc(F)ccc54)CC3)sc2c1` was 2.37 µM; that for `CCOC(=O)C1CCCN(C(=O)CCC(=O)Nc2ccc3nc(N4CCOCC4)cc(C)c3c2)C1` (stereo not drawn) was > 79 µM (inactive).
For the compound `COc1ccc(-c2csc(NC(=O)CCCc3nc4ccccc4c(=O)[nH]3)n2)cc1OC`, the IC50 is 3.42 µM.
On to `O=C(NCCN1CCOCC1)c1cnn2c(-c3ccccc3)cc(-c3ccccc3)nc12`, for which the IC50 is > 79 µM (inactive).
Regarding `Cc1nnc2ccc(-c3cccc(NC(=O)c4ccc(Cl)nc4)c3)nn12`, the IC50 is 2.62 µM.
As to `COCc1c(C(=O)Nc2ccc3nc(N4CCOCC4)sc3c2)oc2ccccc12`, the IC50 is > 79 µM (inactive).
Consider `O=c1[nH]c(CSc2nnc(-c3cccnc3)n2C2CCCCC2)nc2ccccc12`, for which the IC50 was 48.2 µM (inactive).
Take `Cc1c(O)ccc2c(-c3ccccc3)cc(=O)oc12`: the IC50 was > 79 µM (inactive).
As for `CC(C)C1Nc2ccc(C(=O)N3CCN(c4ccccn4)CC3)cc2NC1=O` (stereo not drawn), the IC50 is 22.9 µM (inactive).
For `Cc1ccc2cc3c(NC(=O)c4cccnc4)nn(C)c3nc2c1`, the IC50 was 15.9 µM (inactive).
Turning to `O=C1c2ccccc2C(=O)N1CCCCSc1nc2ccccc2c(=O)n1CCCN1CCOCC1`, the IC50 is 8.49 µM.
The value for `COc1cccc(-c2cnc3c(NC=O)cc(-c4cc(OC)c(OC)c(OC)c4)cn23)c1` was 3.61 µM; that for `CCOC(=O)c1ccc(-c2ccc3ncnc(NCc4csc(C)n4)c3c2)o1` was > 79 µM (inactive).
Turning to `COc1ccnc(Oc2ccccc2)c1C(=O)N/C=N/OCc1ccc(F)cc1Cl`, the IC50 is > 79 µM (inactive).
As for `CCOC(=O)C1=C(COC(=O)c2cc(OC)c(OC)c(OC)c2)NC(=O)NC1C` (stereo not drawn), the IC50 was 5.68 µM.
Regarding `O=C(Cn1nc(C(=O)O)c2ccccc2c1=O)c1c[nH]c2ccccc12`, the IC50 was 3.53 µM.
Take `CC(OC(=O)c1cc(-c2cccnc2)nc2ccccc12)C(=O)Nc1ccc2ccccc2c1` (stereo not drawn): the IC50 was 5.97 µM.
`CC(C)(C)OC(=O)C[C@H]1C/C=C\C[C@H](CC(=O)N[C@H](CO)Cc2ccccc2)C(=O)N[C@H](Cc2ccccc2)COC1=O`: the IC50 was 6.31 µM.
Consider `CCOC(=O)c1ccc(-c2ccc(/C=C(\C#N)C(=O)NCC3CCCO3)o2)cc1` (stereo not drawn), for which the IC50 is > 79 µM (inactive).
Consider `O=C1NC(Cc2ccc(O)cc2)c2nc3ccc(F)cc3c(=O)n2-c2cc3ccccc3cc21` (stereo not drawn), for which the IC50 is 3.72 µM.
Take `O=C/C(=C\Nc1ccccn1)c1nc2cc(Cl)ccc2o1`: the IC50 was 9.92 µM.
For the compound `c1ccc(-c2nc(-n3ccnc3)nc(-n3ccnc3)n2)cc1`, the IC50 was 4.14 µM.
In the case of `CC(=O)Nc1cc(-c2cccc(NS(C)(=O)=O)c2)cn2c(-c3cccc(C(C)=O)c3)cnc12`, the IC50 was 15 µM (inactive).
Consider `CN(C)S(=O)(=O)n1cc(/C=C(\NC(=O)c2ccccc2F)C(=O)NCCN2CCOCC2)c2ccccc21`, for which the IC50 is 30.8 µM (inactive).
In the case of `N#Cc1c(-c2ccco2)cc(-c2cccnc2)nc1N`, the IC50 was 11 µM (inactive).
The value for `COc1ccc(C(=O)COC(=O)C(CCCCN2C(=O)C3C4C=CC(C4)C3C2=O)N2C(=O)C3C4C=CC(C4)C3C2=O)cc1` (stereo not drawn) was 4.84 µM; that for `COc1ccc(C(=O)O/N=C(/c2ccccc2)c2ccncc2)cc1OC` was 10.7 µM (inactive); that for `COc1ccc(CCn2c(=N)c(C(=O)NCC3CCCO3)cc3c(=O)n4cccc(C)c4nc32)cc1OC` (stereo not drawn) was 2.6 µM.
On to `NC(=O)c1nsc(C(=O)N(c2ccccc2F)C(C(=O)NCc2ccc(F)cc2)c2ccc(O)cc2)c1N` (stereo not drawn), for which the IC50 is 0.94 µM.
The value for `COc1cc(-c2cc(NC=O)c3ncc(-c4ccc(C(C)=O)cc4)n3c2)ccc1O` was 3.61 µM; that for `COc1cc(NC(=O)c2ccc(-c3cn[nH]c3)c3ccoc23)cc(OC)c1OC` was 3.24 µM.
For `O=C(N/N=C/c1ccccn1)c1cc(-c2cccc3ccccc23)n[nH]1`, the IC50 is 6.66 µM.
`COc1cccc(C(=O)Nc2cccc(-c3nnc(-c4ccco4)o3)c2)c1`: the IC50 was > 79 µM (inactive).
In the case of `COc1ccc(CCn2c(=O)c3cccnc3n(Cc3ccc([N+](=O)[O-])cc3)c2=O)cc1OC`, the IC50 was 1.22 µM.
On to `CC(C)c1ccccc1NC(=O)COC(=O)c1c2c(nc3ccccc13)CCN(Cc1ccccc1)C2`, for which the IC50 was 5.25 µM.
Regarding `CC(C)(C)NC(=O)COC(=O)c1c2c(nc3ccccc13)CCC2`, the IC50 was 14.6 µM (inactive).

Source of the values: PubChem BioAssay AID602211 (Sanford-Burnham Center for Chemical Genomics, 2012).
